Three compounds from patent US20140221499A1, “NOVEL RODENT CONTROL AGENTS AND USES THEREOF” (priority 2011, published 2014) can be followed below.

Holding throughout (type): cell-based
For test [1], the system named is olfactory TAARs. The test can be described thus: TAAR reporter gene assay, panel of mouse and rat TAARs in HEK293 cells. The settings on record: for TAAR activation: mouse and rat TAARs. An excerpt:
(§1) Here, we set out to identify agonists for additional mouse and rat TAARs. We examined odor response profiles using a previously established reporter gene assay based on cAMP-dependent odor transduction in olfactory sensory neurons (40, 42). Briefly, TAAR plasmids were transfected into HEK293 cells along with a cAMP-dependent reporter gene encoding secreted alkaline phosphatase (CRE-SEAP). TAARs were expressed both in unmodified form and as fusion proteins with an N-terminal sequence of bovine rhodopsin (‘Rho tag’) that promotes cell surface expression of some chemosensory receptors (35). Transfected cells were incubated with test chemicals, and phosphatase activity was quantified with a fluorescent substrate as a reporter for TAAR activation. In initial experiments, we tested 38 different odorant mixtures containing 244 structurally diverse test chemicals (2-5 μM) for the ability to activate each mTAAR. Subsequently, we tested 73 amines that included known mTAAR agonists and related chemicals for the ability to activate each rTAAR.
TAAR functional assays. Full Taar coding regions were cloned into pcDNA3.1-(Invitrogen) with or without a 5′ DNA extension of 69 bp encoding the first 20 amino acids of bovine rhodopsin followed by a cloning linker ([…]). Point mutations were introduced in mTAAR7e and mTAAR7f by overlap extension PCR. Functional assays were performed as described (40, 42). Fluorescence was measured on an EnVision plate reader (Perkin Elmer) and SEAP activity graphed as relative fluorescence of a phosphatase substrate.

Test [2] has as its target T1, rTAAR7h (Rattus norvegicus, UniProt Q923Y4).
T1 sequence (Q923Y4 1-358): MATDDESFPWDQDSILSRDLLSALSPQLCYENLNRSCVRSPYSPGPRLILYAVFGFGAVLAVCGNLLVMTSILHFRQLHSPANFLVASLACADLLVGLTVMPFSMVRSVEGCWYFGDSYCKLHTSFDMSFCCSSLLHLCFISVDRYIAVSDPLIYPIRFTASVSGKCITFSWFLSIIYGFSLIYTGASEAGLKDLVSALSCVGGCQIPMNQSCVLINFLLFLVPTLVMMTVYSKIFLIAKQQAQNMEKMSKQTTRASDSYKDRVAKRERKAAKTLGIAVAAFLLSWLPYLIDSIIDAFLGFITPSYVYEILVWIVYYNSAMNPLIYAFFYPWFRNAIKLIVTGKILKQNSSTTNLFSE
Kind of test: TAAR reporter gene assay, rTAAR7h. Set-up: Full Taar coding regions were cloned into pcDNA3.1-(Invitrogen); Rho tag (first 20 aa of bovine rhodopsin + linker); expressed in transfected cells; host or cells: HEK293.
Excerpt: as §1
(§2) TAAR functional assays. […] Fluorescence was measured on an EnVision plate reader (Perkin Elmer) and SEAP activity graphed as relative fluorescence of a phosphatase substrate.
On the technique in general: A reporter such as luciferase makes a cellular process visible.

Test [3] deals with T2, mTAAR7e (Mus musculus, UniProt Q5QD09).
T2 construct: Full Taar coding regions were cloned into pcDNA3.1-(Invitrogen); Rho tag (first 20 aa of bovine rhodopsin + linker); expressed in transfected cells; host or cells: HEK293
T2 sequence (Q5QD09 1-358): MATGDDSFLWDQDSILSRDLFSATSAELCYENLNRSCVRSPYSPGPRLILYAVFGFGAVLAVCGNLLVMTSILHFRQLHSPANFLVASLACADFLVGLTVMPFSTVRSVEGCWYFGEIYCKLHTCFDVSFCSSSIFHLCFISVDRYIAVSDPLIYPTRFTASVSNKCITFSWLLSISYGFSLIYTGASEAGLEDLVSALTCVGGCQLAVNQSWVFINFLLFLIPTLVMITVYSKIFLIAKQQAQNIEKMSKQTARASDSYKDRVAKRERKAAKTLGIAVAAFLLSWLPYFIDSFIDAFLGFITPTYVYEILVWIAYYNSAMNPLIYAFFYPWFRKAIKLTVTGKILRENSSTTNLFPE
Kind of test: TAAR reporter gene assay, mTAAR7e.
Excerpt: as §1, §2

Test [4] has as its target T3, rTAAR7d (Rattus norvegicus, UniProt Q923X5).
T3 sequence (Q923X5 1-358): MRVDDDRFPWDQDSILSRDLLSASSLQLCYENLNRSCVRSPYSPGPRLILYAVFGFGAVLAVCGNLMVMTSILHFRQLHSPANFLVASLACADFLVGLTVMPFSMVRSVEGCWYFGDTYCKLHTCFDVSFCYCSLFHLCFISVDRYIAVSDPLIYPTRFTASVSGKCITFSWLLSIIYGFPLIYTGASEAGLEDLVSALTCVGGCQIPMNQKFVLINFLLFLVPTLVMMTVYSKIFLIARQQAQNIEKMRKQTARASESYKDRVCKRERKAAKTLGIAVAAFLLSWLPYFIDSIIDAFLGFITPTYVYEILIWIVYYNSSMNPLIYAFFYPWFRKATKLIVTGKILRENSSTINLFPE
Kind of test: TAAR reporter gene assay, rTAAR7d. Set-up: Full Taar coding regions were cloned into pcDNA3.1-(Invitrogen); Rho tag (first 20 aa of bovine rhodopsin + linker); expressed in transfected cells; host or cells: HEK293.
Excerpt: as §1, §2

Test [5] has as its target T4, mTAAR7b (Mus musculus, UniProt Q5QD11).
T4 sequence (Q5QD11 1-358): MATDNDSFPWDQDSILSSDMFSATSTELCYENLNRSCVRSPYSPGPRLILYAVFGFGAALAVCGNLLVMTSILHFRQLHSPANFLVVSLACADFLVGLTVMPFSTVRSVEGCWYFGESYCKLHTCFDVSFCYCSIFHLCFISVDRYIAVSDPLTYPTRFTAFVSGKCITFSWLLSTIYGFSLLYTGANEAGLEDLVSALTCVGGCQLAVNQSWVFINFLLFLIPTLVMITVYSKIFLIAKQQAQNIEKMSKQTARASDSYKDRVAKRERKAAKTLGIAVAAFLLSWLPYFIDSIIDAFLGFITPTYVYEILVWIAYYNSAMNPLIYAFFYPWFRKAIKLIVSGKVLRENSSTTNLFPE
Kind of test: TAAR reporter gene assay, mTAAR7b. Set-up: Full Taar coding regions were cloned into pcDNA3.1-(Invitrogen); Rho tag (first 20 aa of bovine rhodopsin + linker); expressed in transfected cells; host or cells: HEK293.
Excerpt: as §1, §2

With `NCCc1ccccc1` [2-phenylethylamine], the “activation of other olfactory TAARs with identified ligands” value in test [1] (10 μM (FIG. 2D)) was “did not similarly activate”.

As for `CN(C)CCc1ccccc1` [ligand 6, N,N-dimethyl-2-phenylethylamine], the rTAAR7h activation result in test [2] is listed as “activated”. The mTAAR7e activation result in test [3] is given as “activated”. In test [4], the rTAAR7d activation entry was “not”. Also, the TAAR activation result in test [1] was “activated different TAAR7 paralogs”. Besides, the mTAAR7b activation entry in test [5] is given as “not”.

As for `CN(C)C1CCCCC1` [ligand 10, N,N-dimethylcyclohexylamine], the rTAAR7h activation result in test [2] was “not”. In test [3], the mTAAR7e activation result is “not”. Besides, the rTAAR7d activation entry in test [4] is on record as “activated”. Also, the TAAR activation entry in test [1] is “activated different TAAR7 paralogs”. The mTAAR7b activation entry in test [5] was “activated”.
